Molecules are shown by their SMILES.

This test has as its system Candida famata regulatory mutants able to overproduce riboflavin. The experiment in a line: Sensitivity to copper ions, solid Burkholder medium (Table 12). It is filed as cell-based. As to conditions: L20105-3-2-4. The arrangement: key: +++: strong growth; ++: weak growth; —: absence of growth.

Turning to `O=S(=O)([O-])[O-].[Cu+2]` [CuSO4], the growth result reads like this: (Cu^+2 0.3 mM) “—”; (Cu^+2 8 mM) “—”.

For the origin of these results see patent US7009045B2 (priority 2000, dated 2006).
